Measurements as given in patent US20250241878A1, “TYROSINE AND RESVERATROL DERIVATIVES AS NOVEL MODULATORS OF CELLULAR SERINE ADP-RIBOSYLATION” (UNIVERSITY OF SOUTH CAROLINA, priority 2022, published 2025).
“Also recorded” adds a separate entry of the source. Like-named read-outs stand apart in the source and are kept apart here. Where a SMILES comes first, the peptide text is derived from it. The star is where a group is joined. Cbz = O=C(OCc1ccccc1)*

What was measured:
cleaved caspase-3 = experiment: Cleaved caspase-3 immunoblot; format: cell-based, rat; conditions: compound alone; trans-RSV at high concentration
Method: FIG. 17E presents immunoblots showing the levels of cleaved caspase-3 in rat cortical neurons (DIV 9/10) after the treatment with D-Tyr (2 mM) for 16 hr.

[1] = test system: histone H3-Ser10-ADP-ribosylation; experiment: Histone H3 serine-ADP-ribosylation immunoblot in cortical neurons; format: cell-based, rat; conditions: for histone H3 serine-ADP-ribosylation: compound alone; for histone serine-ADP-ribosylation: picomolar concentration (5-50 pM)
Method: FIG. 5B presents representative immunoblots and quantification of histone H3-Ser10-ADP-ribosylation levels in cortical neurons (DIV9) using anti-H3-Ser10-ADPR antibody after treatment with D-tyrosine (2.5 and 5 mM).
(§1) Cultured neurons (DIV 9-10) were washed once with cold 1×PBS and lysed in cell lysis buffer (20 mM Tris-HCl (pH 7.5), 150 mM NaCl, 1 mM Na2EDTA, 1 mM EGTA, 1% Triton™, 2.5 mM sodium pyrophosphate, 1 mM beta-glycerophosphate, 1 mM Na3VO4, 1 μg/ml leupeptin supplemented with protease inhibitor). The lysates were centrifuged at 10,000 RPM for 15 mins at 4° C. to separate the chromatin-bound and soluble fractions. Lysates were quantified using Bio-Rad™ Protein Assay and equal amounts of protein were loaded onto a 4 to 12% gradient gel (Invitrogen™ NuPAGE™). Protein was transferred from the gel to 0.2 μm NC membranes at 25 V for 10 mins using transfer stacks (iBlot™ 2-Invitrogen™) and blocked with 5% non-fat milk in TBST (10 mM Tris-HCl pH 8.0, 150 mM NaCl, 0.01% Tween-20) for 1 hr before application of primary antibodies. Primary and secondary antibodies were incubated overnight at 4° C. and for 1 hr at room temperature, respectively. Immobilon® ECL Ultra Western HRP Substrate (WBULS0500, Millipore™) and a luminescent image analyzer (ChemiDoc™ Imaging System, Bio-Rad™) were used to detect proteins. Quantification of western blots was done using ImageJ (Version 1.53c).

rat cortical neurons [2] = experiment: MTT cell viability assay; conditions: for neurotoxicity (viability): D-amino acid alone; for effect on trans-RSV-mediated neurotoxicity: combination with trans-RSV; for effect on cis-RSV-mediated neuroprotective effects: combination with cis-RSV, NMDA toxicity
Method: (§4) Rat cortical neurons (DIV9-11) were exposed to different treatments (NMDA, ETO, H2O2, MPP+) after seeding 20,000 cells/well in 96-well plates. Cell viability was then assessed at 48 hr after the initial exposure to NMDA. 3-[4,5-dimethylthiazole-2-yl]-2,5-diphenyltetrazolium bromide (MTT) assays were used to assess change in cell viability. […] Cultured rat cortical neurons were incubated with MTT (0.5 mg/mL). In the MTT assay, after 2 hr incubation, the insoluble purple product formazan resulting from the reduction of MTT by NAD (P) H-dependent oxidoreductases present in cells with viable mitochondria was solubilized in dimethyl sulfoxide at room temperature, under agitation, and protected from light. The percentage of MTT reduced as measured by the difference between the absorbances at 570 nm read in a spectrophotometer (SpectraMax® 190R Molecular Devices, UK).

TyrRS = format: cell-based, rat; conditions: for neuronal TyrRS levels: picomolar concentration (5-50 pM); for levels of neuronal TyrRS: neurotoxic agent alone, after 4 hr of treatment
Method: (§2) Primary cortical neurons were dissected from E18 Sprague Dawley rat pups in Hibernate E (BrainBits®) and dissociated using the Neural Tissue Dissociation kit (Miltenyi Biotec). Minced cortices were incubated in a pre-warmed enzyme mix at 37° C. for 15 min; tissues were then triturated and strained using a 40 μm cell strainer. After washing and centrifugation, neurons were seeded in 50 μg/ml poly-D-Lysine (Sigma-Aldrich) coated tissue culture plates. NBActive-1 medium (BrainBits®) supplemented with 100 U/ml of Penicillin-Streptomycin (Life Technologies™), 2 mM L-Glutamine (Life Technologies™), and 1×N21 supplement (R&D Systems™) was used as culture medium. For preparation of culture medium containing reduced tyrosine, the components of NBActive-1 medium were altered to combined with a reduced concentration of tyrosine, as mentioned in Table 1, and was supplemented with 100 U/ml of Penicillin-Streptomycin (Life Technologies™), 2 mM L-Glutamine (Life Technologies™), and 1×N21 supplement (R&D Systems™) to obtained culture medium with reduced tyrosine. Control (non-targeting), TyrRS, and PARP1 siRNAs were obtained from Invitrogen™ (#AM4635, s443, and s130207, respectively). Rat cortical neurons at 5 DIV were transfected with 75 nM control or TyrRS siRNA using DharmaFECT™ 3 Transfection Reagent. A second transfection was done two days later using 75 nM of TyrRS siRNA, followed by cell collection or assays after another 48 hr. For PARP1 siRNA, neurons at 7 DIV were transfected with 75 nM siRNA for both control and PARP1 siRNA.
as §1
Cultured cortical neurons (DIV 9-10) were fixed in 4% formaldehyde for 15 min, followed by permeabilization and blocking for 30 min in 5% BSA (PBS) and 0.1% Tween™ 20 at room temperature. Incubation with primary antibodies was done at 4° C. overnight. The names and dilutions of the primary antibodies used for IF are described in Table 3. Secondary antibodies were incubated for 1 hr at room temperature. Secondary antibodies used were Alexa Fluor® 647 (anti-chicken), Alexa Fluor® 555 (anti-mouse), Alexa Fluor® 488 (anti-rabbit) from Invitrogen™ at 1:1000 dilution. Coverslips were then mounted using DAPI (4′,6-diamidino-2-phenylindole)-supplemented mounting medium, ProLong™ Gold Antifade (Invitrogen™) and imaged with Leica DMI6000 epifluorescent microscope using oil immersion 63×/NA 1.4 objective. The quantification for total protein levels in neurons was done using ImageJ (version 1.53c), and imaging parameters were matched for exposure, gain, and offset.
(§3) The various compounds used for treatments and their stock concentrations in Table 4.

PheRSα/β = PheRSα/β protein levels in cortical neurons (Western blot); format: cell-based, rat; conditions: for PheRSβ levels: compound alone
Method: as §2, §1, §3

HPF1 = HPF1 levels immunoblot in cortical neurons; format: cell-based, rat; conditions: compound alone
Method: FIG. 5A presents immunoblots showing the protein levels of HPF1 in rat cortical neurons (DIV9-10) after treatment with Tyr ([…]) for up to 8 hr.
as §1

eEF2 = eEF2 phosphorylation (p-eEF2) Western blot in cortical neurons; format: cell-based, rat; conditions: compound alone
Method: as §2, §1

rat cortical neurons [3] = test system: rat cortical neurons
Method: as §4

monosomes = experiment: Monosome formation in cortical neurons; format: cell-based, rat
neuronal chromatin = experiment: Chromatin fraction immunoblots of cortical neurons; format: cell-based, rat; conditions: picomolar concentration
Method: as §1

[4] = compound alone, rat cortical neurons

N[C@H](Cc1ccc(O)cc1)C(=O)O [D-Tyr, D-tyrosine]
levels of cleaved caspase-3 (cleaved caspase-3): increased the levels of cleaved caspase-3 | histone H3 serine-ADP-ribosylation [1]: potent inhibitor of TyrRS/PARP1/HPF1-dependent serine-ADP-ribosylation and DNA repair | neurotoxicity (viability) (rat cortical neurons [2]): induced neurotoxicity

NCCc1ccc(O)c(O)c1 [DA, dopamine]
histone H3 serine-ADP-ribosylation [1]: stimulated histone H3 serine-ADP-ribosylation | TyrRS protein levels (TyrRS): increased the protein levels of TyrRS | effect on trans-RSV-mediated neurotoxicity (rat cortical neurons [2]): protected against neurotoxic effects of trans-RSV

N[C@@H](Cc1ccc(O)c(O)c1)C(=O)O [L-DOPA, 3,4-dihydroxy-L-phenylalanine]
PheRSβ levels (PheRSα/β): decreased the levels of TyrRS and PheRSβ | TyrRS protein levels (TyrRS; [4]): decreased the levels of TyrRS

CN(C)Cc1ccc(-c2nc3cccc4c3n2CCNC4=O)cc1 [AG-14361]
effect on cis-RSV-mediated neuroprotective effects (rat cortical neurons [2]): did not affect cis-RSV-mediated neuroprotective effects

N[C@H](Cc1ccccc1)C(=O)O [D-Phe]
neurotoxicity (viability) (rat cortical neurons [2]): had no significant effects

O=C(COc1ccc(Cl)cc1)NC1CCC(NC(=O)COc2ccc(Cl)cc2)CC1 (stereo not shown) [ISRIB]
HPF1 levels (HPF1): increased HPF1 levels | histone H3 serine-ADP-ribosylation [1]: induction of histone H3 serine-ADP-ribosylation | PheRSβ protein levels (PheRSα/β; ISRIB 5-50 nM): increased the protein levels of TyrRS and PheRSβ | TyrRS protein levels (TyrRS; ISRIB 5-50 nM): increased the protein levels of TyrRS | effect on trans-RSV mediated depletion of TyrRS (TyrRS; combination with trans-RSV): rescued trans-RSV mediated depletion of TyrRS | TyrRS levels (TyrRS; higher doses of ISRIB (250-500 nM)): decreased TyrRS levels | eEF2 phosphorylation (p-eEF2) (eEF2): stimulated the dephosphorylation of eEF2 | effect on trans-RSV-mediated neurotoxicity (rat cortical neurons [2]): protected against neurotoxic effects of trans-RSV

N[C@H](Cc1c[nH]c2ccccc12)C(=O)O [D-Trp]
neurotoxicity (viability) (rat cortical neurons [3]): had no significant effects

C[C@@H]1C[C@@H]([C@H](O)CC2CC(=O)NC(=O)C2)C(=O)[C@@H](C)C1 [cycloheximide]
effect on cis-RSV-mediated increase in TyrRS level (TyrRS; combination with cis-RSV): abrogated | TyrRS protein levels (TyrRS; [4]): decreased TyrRS levels

CO/C1=C\C(C)=C\[C@@H](C)[C@@H](O)[C@@H](C)C/C(C)=C/C=C/[C@H](OC)[C@@H]([C@@H](C)[C@@H](O)[C@H](C)[C@@]2(O)C[C@@H](O)[C@H](C)[C@@H](C(C)C)O2)OC1=O [bafilomycin]
TyrRS protein levels (TyrRS; [4]): increased the levels of TyrRS

amyloid beta 40: amyloid beta 40 peptide at picomolar concentration
histone serine-ADP-ribosylation [1]: activation of histone serine-ADP-ribosylation | neuronal TyrRS levels (TyrRS): stimulation of neuronal TyrRS protein levels

Cn1ncnc1[C@H]1c2n[nH]c(=O)c3cc(F)cc(c23)N[C@@H]1c1ccc(F)cc1 [talazoparib]
effect on amyloid beta 42-induced monosome formation (monosomes; combination with amyloid beta 42 (10 picomolar)): lost

amyloid beta 42: amyloid beta 42 peptide at physiological picomolar concentration
histone serine-ADP-ribosylation [1]: activation of histone serine-ADP-ribosylation; also recorded: endogenous stimulator | monosome formation (monosomes; picomolar amyloid beta 42 (5-50 pM; 10 picomolar in FIG. 20A)): endogenous stimulator of monosome formation | neuronal TyrRS levels (TyrRS): stimulation of neuronal TyrRS protein levels; also recorded: endogenous stimulator | chromatin trapping of auto-PARylated PARP1 with Rad52, DNA polymerase beta, ligase III, TyrRS (neuronal chromatin): trapping of auto-PARylated PARP1 along with Rad52, DNA polymerase beta, ligase III, TyrRS onto the chromatin

O=C(c1cc(Cc2n[nH]c(=O)c3ccccc23)ccc1F)N1CCN(C(=O)C2CC2)CC1 [olaparib]
effect on cis-RSV-mediated neuroprotective effects (rat cortical neurons [2]): mitigated the neuroprotective effects of cis-RSV | effect on trans-RSV-mediated neurotoxicity (rat cortical neurons [2]): did not affect trans-RSV-mediated neurotoxicity

Cc1c(O)cccc1C(=O)N[C@@H](CSc1ccccc1)[C@H](O)CN1C[C@H]2CCCC[C@H]2C[C@H]1C(=O)NC(C)(C)C [nelfinavir]
TyrRS protein levels (TyrRS; [4]): depleted neuronal TyrRS

N[C@@H](Cc1ccccc1)C(=O)O [phenylalanine, L-phenylalanine]
PheRSβ levels (PheRSα/β): decreased the levels of TyrRS and PheRSβ | TyrRS protein levels (TyrRS; [4]): decreased the levels of TyrRS

CN[C@H](CC(=O)O)C(=O)O [NMDA, N-Methyl-D-aspartate]
levels of neuronal TyrRS (TyrRS): decreased the levels of neuronal TyrRS

CC(C)C[C@@H](C=O)NC(=O)[C@H](CC(C)C)NC(=O)[C@H](CC(C)C)NC(=O)OCc1ccccc1 [MG132] (Cbz-Leu-Leu-Leu-aldehyde)
TyrRS protein levels (TyrRS; [4]): increased the levels of TyrRS

C[n+]1ccc(-c2ccccc2)cc1 [MPP+, 1-methyl-4-phenylpyridinium]
levels of neuronal TyrRS (TyrRS): decreased the levels of neuronal TyrRS

NCCc1cc(O)c(O)cc1O [Formula 6-OHDA, 6-hydroxydopamine]
PheRSβ levels (PheRSα/β): decreased the levels of TyrRS and PheRSβ | TyrRS protein levels (TyrRS; [4]): decreased the levels of TyrRS

CCn1c(=O)c2cc(C(N)=O)c(N)nc2n(C2CC2)c1=O [eEF2K inhibitor]
effect on trans-RSV-mediated neurotoxicity (rat cortical neurons [2]): protected against neurotoxic effects of trans-RSV

B1: BDNF: brain-derived neurotrophic factor (protein, UniProt P23560 19-247, looked up)
Neurotrophic factor BDNF …: APMKEANIRGQGGLAYPGVRTHGTLESVNGPKAGSRGLTSLADTFEHVIEELLDEDQKVRPNEENNKDADLYTSRVMLSSQVPLEPPLLFLLEEYKNYLDAANMSMRVRRHSDPARRGELSVCDSISEWVTAADKKTAVDMSGGTVTVLEKVPVSKGQLKQYFYETKCNPMGYTKEGCRGIDKRHWNSQCRTTQSYVRALTMDSKKRIGWRFIRIDTSCVCTLTIKRGR
HPF1 levels (HPF1): increased HPF1 levels | histone H3 serine-ADP-ribosylation [1]: induction of histone H3 serine-ADP-ribosylation | TyrRS protein levels (TyrRS; [4]): stimulates the de novo synthesis of neuronal TyrRS
